According to PubChem BioAssay (NCI):
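48-hour exposure; five concentrations; linearly interpolated endpoints. TGI is the concentration that stops growth completely.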

Columns and labels:
Experiment in all cases: DTP human tumour cell line panel, 48 h
[1] = system: SK-MEL-2 melanoma
[2] = system: SNB-78 CNS
[3] = system: SW-620 colon
[4] = system: NCI-H522 lung
[5] = system: HT29 colon
[6] = system: UACC-257 melanoma
[7] = system: EKVX NSCLC
[8] = system: LXFL 529 NSCLC
[9] = system: UACC-62 melanoma
[10] = system: OVCAR-5 ovarian
[11] = system: CAKI-1 renal
[12] = system: RXF 393 renal
[13] = system: DLD-1 colon
[14] = system: LOX IMVI melanoma
[15] = system: HOP-92 NSCLC
[16] = system: OVCAR-3 ovarian
[17] = system: NCI-H460 lung
[18] = system: SF-268 CNS
[19] = system: CCRF-CEM leukemia
[20] = system: A498 renal
[21] = system: 786-0 renal
[22] = system: UO-31 renal
[23] = system: SK-OV-3 ovarian
[24] = system: OVCAR-8 ovarian
[25] = system: K-562 leukemia
[26] = system: M19-MEL melanoma
[27] = system: MOLT-4 leukemia
[28] = system: KM12 colon
[29] = system: A549 NSCLC
[30] = system: SN12C renal
[31] = system: SF-295 CNS
[32] = system: MALME-3M melanoma
[33] = system: ACHN renal
[34] = system: NCI-H226 lung
[35] = system: COLO 205 colon
[36] = system: RPMI-8226 leukemia
[37] = system: HCC-2998 colon
[38] = system: HCT-15 colon
[39] = system: HCT-116 colon
[40] = system: SK-MEL-5 melanoma
[41] = system: U251 CNS
[42] = system: SNB-19 CNS
[43] = system: IGROV1 ovarian
[44] = system: SF-539 CNS
[45] = system: SR leukemia
[46] = system: SK-MEL-28 melanoma
[47] = system: HOP-62 NSCLC
[48] = system: OVCAR-4 ovarian
[49] = system: NCI-H23 lung

CN/N=C(/CC(=O)c1sc(-n2nc(-c3ccccc3)cc2-c2ccccc2)nc1C)C(=O)Nc1ccc(Cl)c(Cl)c1
TGI [1]: > 100 µM
TGI [2]: > 100 µM
TGI [3]: > 100 µM
TGI [4]: > 100 µM
TGI [5]: > 100 µM
TGI [6]: > 100 µM
TGI [7]: 17.7 µM
TGI [8]: > 100 µM
TGI [9]: > 100 µM
TGI [10]: 69.6 µM
TGI [11]: > 100 µM
TGI [12]: > 100 µM
TGI [13]: > 100 µM
TGI [14]: > 100 µM
TGI [15]: 70.4 µM
TGI [16]: > 100 µM
TGI [17]: > 100 µM
TGI [18]: > 100 µM
TGI [19]: > 100 µM
TGI [20]: > 100 µM
TGI [21]: > 100 µM
TGI [22]: > 100 µM
TGI [23]: > 100 µM
TGI [24]: > 100 µM
TGI [25]: > 100 µM
TGI [26]: > 100 µM
TGI [27]: > 100 µM
TGI [28]: > 100 µM
TGI [29]: > 100 µM
TGI [30]: > 100 µM
TGI [31]: > 100 µM
TGI [32]: > 100 µM
TGI [33]: > 100 µM
TGI [34]: > 100 µM
TGI [35]: > 100 µM
TGI [36]: > 100 µM
TGI [37]: > 100 µM
TGI [38]: > 100 µM
TGI [39]: > 100 µM
TGI [40]: > 100 µM
TGI [41]: > 100 µM
TGI [42]: > 100 µM
TGI [43]: > 100 µM
TGI [44]: > 100 µM
TGI [45]: > 100 µM
TGI [46]: > 100 µM
TGI [47]: > 100 µM
TGI [48]: > 100 µM
TGI [49]: > 100 µM
